PubChem BioAssay AID192 (DTP/NCI, 2004)
Where “and” joins values, the source holds several entries; their conditions need not be identical. Identical values can stand only once. Toxic doses and inconclusive results are not listed. Rule for the calls: active = survival T/C of 150% or more; inactive = T/C below 125% in these data.

System: BDF1 mice, B16 melanoma ip, median survival T/C
Test: NCI In Vivo Anticancer Drug Screen. Data for tumor model B16 Melanoma (intraperitoneal) in B6D2F1 (BDF1) mice
Details: endpoint: median survival time, higher = longer survival
In short: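 Read-out: survival or tumor size, given as treated/control ratio. Controls received vehicle only; animals bore transplantable tumors.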

[1] = dose: 6.25 mg/kg/injection, schedule: Q01DX009 (ip), vehicle: saline
[2] = dose: 12.5 mg/kg/injection, schedule: Q01DX009 (ip), vehicle: saline
[3] = dose: 25.0 mg/kg/injection, schedule: Q01DX009 (ip), vehicle: saline with Tween-80
[4] = dose: 50.0 mg/kg/injection, schedule: Q01DX009 (ip), vehicle: saline with Tween-80

Measured: T/C

Nc1c2c(nc3ccccc13)CCCC2
inactive: dose: 0.19 mg/kg/injection, schedule: Q01DX009 (ip), vehicle: saline 95 % of control | dose: 0.39 mg/kg/injection, schedule: Q01DX009 (ip), vehicle: saline 95 % of control | dose: 0.78 mg/kg/injection, schedule: Q01DX009 (ip), vehicle: saline 100 % of control | dose: 1.56 mg/kg/injection, schedule: Q01DX009 (ip), vehicle: saline 95 % of control | dose: 3.12 mg/kg/injection, schedule: Q01DX009 (ip), vehicle: saline 102 % of control | [1] 91 % of control | [2] 100 % of control

CC(c1ccccc1)N1C(=O)CSC1=S (configuration not stated)
inactive: [3] 100 % of control | [4] 94 % of control | dose: 100.0 mg/kg/injection, schedule: Q01DX009 (ip), vehicle: saline with Tween-80 103 % of control | dose: 200.0 mg/kg/injection, schedule: Q01DX009 (ip), vehicle: saline with Tween-80 101 % of control

c1ccc2c(c1)[As]=c1ccccc1=[As]2 (configuration not stated)
inactive: dose: 0.75 mg/kg/injection, schedule: Q01DX009 (ip), vehicle: saline with Tween-80 104 % of control | dose: 1.5 mg/kg/injection, schedule: Q01DX009 (ip), vehicle: saline with Tween-80 106 % of control | dose: 3.0 mg/kg/injection, schedule: Q01DX009 (ip), vehicle: saline with Tween-80 100 % of control | dose: 6.0 mg/kg/injection, schedule: Q01DX009 (ip), vehicle: saline with Tween-80 110 % of control

Cc1ccc(NC(=O)Nc2ccc(Cl)c(Cl)c2)c(C)c1
inactive: dose: 25.0 mg/kg/injection, schedule: Q01DX009 (ip), vehicle: Klucel (hydroxypropylcellulose) (HPC) 109 % of control | dose: 50.0 mg/kg/injection, schedule: Q01DX009 (ip), vehicle: Klucel (hydroxypropylcellulose) (HPC) 103 % of control | dose: 100.0 mg/kg/injection, schedule: Q01DX009 (ip), vehicle: Klucel (hydroxypropylcellulose) (HPC) 92 % of control

C[C@@H](CN1CC(=O)NC(=O)C1)N1CC(=O)NC(=O)C1
inactive: dose: 8.0 mg/kg/injection, schedule: Q01DX009 (ip), vehicle: saline with Tween-80 100 % of control | dose: 16.0 mg/kg/injection, schedule: Q01DX009 (ip), vehicle: saline with Tween-80 117 % of control | dose: 16.0 mg/kg/injection, schedule: Q01DX009 (ip), vehicle: water 107 % of control and 122 % of control | dose: 25.0 mg/kg/injection, schedule: Q04DX003 (ip), vehicle: water 101 % of control and 107 % of control | dose: 32.0 mg/kg/injection, schedule: Q01DX009 (ip), vehicle: saline with Tween-80 112 % of control | dose: 32.0 mg/kg/injection, schedule: Q01DX009 (ip), vehicle: water 111 % of control | dose: 50.0 mg/kg/injection, schedule: Q04DX003 (ip), vehicle: water 103 % of control | dose: 100.0 mg/kg/injection, schedule: Q04DX003 (ip), vehicle: water 104 % of control and 112 % of control | dose: 128.0 mg/kg/injection, schedule: Q01DX009 (ip), vehicle: water 113 % of control | dose: 200.0 mg/kg/injection, schedule: Q04DX003 (ip), vehicle: water 103 % of control | dose: 256.0 mg/kg/injection, schedule: Q01DX009 (ip), vehicle: water 87 % of control | dose: 400.0 mg/kg/injection, schedule: Q04DX003 (ip), vehicle: water 117 % of control | dose: 800.0 mg/kg/injection, schedule: Q04DX003 (ip), vehicle: water 88 % of control

COc1cc2ccc3c4cc5c(cc4c[n+](C)c3c2cc1OC)OCO5
inactive: dose: 10.0 mg/kg/injection, schedule: Q01DX009 (ip), vehicle: Klucel (hydroxypropylcellulose) (HPC) 104 % of control

Cc1ccc(NC(=O)c2cccc(C(=O)Nc3ccc(C)c(C)c3)c2)cc1C
inactive: dose: 100.0 mg/kg/injection, schedule: Q04DX003 (ip), vehicle: Klucel (hydroxypropylcellulose) (HPC) 97 % of control | dose: 200.0 mg/kg/injection, schedule: Q04DX003 (ip), vehicle: Klucel (hydroxypropylcellulose) (HPC) 90 % of control | dose: 400.0 mg/kg/injection, schedule: Q04DX003 (ip), vehicle: Klucel (hydroxypropylcellulose) (HPC) 93 % of control

N#CCCCN1CCCCC1
inactive: [1] 100 % of control | [2] 100 % of control | dose: 25.0 mg/kg/injection, schedule: Q01DX009 (ip), vehicle: saline 111 % of control

Cc1cc[n+](CCc2ccccc2)cc1
inactive: dose: 6.25 mg/kg/injection, schedule: Q01DX009 (ip), vehicle: saline with Tween-80 92 % of control | dose: 12.5 mg/kg/injection, schedule: Q01DX009 (ip), vehicle: saline with Tween-80 88 % of control | [3] 95 % of control | [4] 88 % of control
